Structures are written as SMILES. Where only a bound is given, the exact number is not on record here.

Experimental findings from EP2209789B1, “C[…] INDOLOB[…] NS5B INHIBITORS” (Bristol-Myers Squibb Company, priority 2007, dated 2009) are described below.

Test [1] deals with HCV replicon. The experiment in a line: HCV replicon FRET / luciferase assay. It counts as cell-based. How it is done: FRET Assay Preparation. The HCV FRET screening assay was performed in 96-well cell culture plates. The FRET peptide (Anaspec, Inc.) (Taliani et al., Anal. Biochem. 1996, 240, 60-67) contains a fluorescence donor, EDANS, near one end of the peptide and an acceptor, DABCYL, near the other end. The fluorescence of the peptide is quenched by […] resonance energy transfer (RET) between the donor and the acceptor, but as the NS3 protease cleaves the peptide the products are released from RET quenching and the fluorescence of the donor becomes apparent. The assay reagent was made as follows: 5X cell Luciferase cell culture lysis reagent from Promega (#E153A) diluted to 1X with dH2O, NaCl added to 150 mM final, the FRET peptide diluted to 20 µM final from a 2 mM stock.
To prepare plates, HCV replicon cells, with or without a Renilla luciferase reporter gene, were trypsinized and plated in a 96-well plate with titrated test compounds added in columns 3 through 12; columns 1 and 2 contained a control compound (HCV control inhibitor), and the bottom row contained cells with DMSO only. The plates were then placed in a CO2 incubator at 37 °C.
Assays. Subsequent to addition of the test compounds described above (FRET Assay Preparation), at various times the plate was removed and Alamar blue solution (Trek Diagnostics, #00-100) was added to measure cellular toxicity. After reading in a Cytoflour 4000 instrument (PE Biosystems), plates were rinsed with PBS and then used for FRET assay by the addition of 30 ul of the FRET peptide assay reagent described above (FRET Assay Preparation) per well. The plate was then placed into the Cytoflour 4000 instrument which had been set to 340 excite/490 emission, automatic mode for up to 20 cycles and the plate read in a kinetic mode. Typically, the signal to noise using an endpoint analysis after the reads was at least three-fold. Alternatively, after Alamar blue reading, plates were rinsed with PBS, then used for luciferase assay using the Promega Dual-Glo Luciferase Assay System or the Promega EnduRen Live Cell Substrate assay.
Compound analysis was performed by quantification of the relative HCV replicon inhibition and the relative cytotoxicity values. To calculate cytoxicity values, the average Alamar Blue fluorescence signals from the control wells were set as 100% non-toxic. The individual signals in each of the compound test wells were then divided by the average control signal and multiplied by 100% to determine […]. To calculate the HCV replicon inhibition values, an average background value was obtained from the two wells containing the highest amount of HCV control inhibitor at the end of the assay period. These numbers were similar to those obtained from naïve Huh-7 cells. The background numbers were then subtracted from the average signal obtained from the control wells and this number was used as 100% activity. The individual signals in each of the compound test wells were then divided by the averaged control values after background subtraction and multiplied by 100% to determine percent activity. […] The two numbers generated for the compound plate, percent cytoxicity and percent activity, were used to determine compounds of interest for further analysis.

Test [2] addresses T1, HCV NS5B (Hepatitis C virus genotype 1b, UniProt Q9WMX2).
T1 construct: The cDNA encoding the NS5B protein of HCV, genotype 1b; made in house; host or cells: E. coli BL21(DE3)
Nature of the test: HCV NS5B RdRp enzyme assay (standard or modified). To be noted: HCV RdRp genotype 1b enzyme; not stated whether standard or modified assay. Format: biochemical. How it is done: HCV NS5B RdRp cloning, expression, and purification. The cDNA encoding the NS5B protein of HCV, genotype 1b, was cloned into the pET21a expression vector. The protein was expressed with an 18 amino acid C-terminal truncation to enhance the solubility. The E. coli competent cell line BL21(DE3) was used for expression of the protein. Cultures were grown at 37 °C for ~ 4 hours until the cultures reached an optical density of 2.0 at 600 nm. The cultures were cooled to 20 °C and induced with 1 mM IPTG. Fresh ampicillin was added to a final concentration of 50 µg/ml and the cells were grown overnight at 20 °C.
The lysis buffer consisted of 20 mM Tris-HCl, pH 7.4, 500 mM NaCl, 0.5% triton X-100, 1 mM DTT, 1 mM EDTA, 20% glycerol, 0.5 mg/ml lysozyme, 10 mM MgCl2, 15 ug/ml deoxyribonuclease I, and Complete TM protease inhibitor tablets (Roche). After addition of the lysis buffer, frozen cell pellets were resuspended using a tissue homogenizer. To reduce the viscosity of the sample, aliquots of the lysate were sonicated on ice using a microtip attached to a Branson sonicator. The sonicated lysate was centrifuged at 100,000 x g for Ihr at 4 °C and filtered through a 0.2 µm filter unit (Coming).
The protein was purified using two sequential chromatography steps: Heparin sepharose CL-6B and polyU sepharose 4B (Pharmacia). The chromatography buffers were identical to the lysis buffer but contained no lysozyme, deoxyribonuclease I, MgCl2 or protease inhibitor and the NaCl concentration of the buffer was adjusted according to the requirements for charging the protein onto the column. Each column was eluted with a NaCl gradient which varied in length from 5-50 column volumes depending on the column type. […] The enzyme was aliquoted and stored at -80 °C.
Standard HCV NSSB RdRp enzyme assay. HCV RdRp genotype 1b assays were run in a final volume of 60 µl in 96 well plates (Coming 3600). The assay buffer is composed of 20 mM Hepes, pH 7.5, 2.5 mM KCl, 2.5 mM MgCl2, 1 mM DTT, 1.6 U RNAse inhibitor (Promega N2515), 0.01 mg/ml BSA (Sigma B6917), and 2 % glycerol. All compounds were serially diluted (3-fold) in DMSO and diluted further in water such that the final concentration of DMSO in the assay was 2%. HCV RdRp genotype 1b enzyme was used at a final concentration of 28 nM. A polyA template was used at 6 nM, and a biotinylated oligo-dT12 primer was used at 180 nM final concentration. Template was obtained commercially (Amersham 27-4110). Biotinylated primer was prepared by Sigma Genosys. 3H-UTP was used at 0.6 µCi (0.29 µM total UTP). Reactions were initiated by the addition of enzyme, incubated at 30 °C for 60 min, and stopped by adding 25 µl of 50 mM EDTA containing SPA beads (4 µg/µl, Amersham RPNQ 0007). Plates were read on a Packard Top Count NXT after >1hr incubation at room temperature.
Modified HCV NS5B RdRp enzyme assay. A modified enzyme assay was performed essentially as described for the standard enzyme assay except for the following: The biotinylated oligo dT12 primer was precaptured on streptavidin-coated SPA beads by mixing primer and beads in assay buffer and incubating at room temperature for one hour. Unbound primer was removed after centrifugation. The primer-bound beads were resuspended in 20 mM Hepes buffer, pH 7.5 and used in the assay at final concentrations of 20 nM primer and 0.67 µg/µl beads. Order of addition in the assay: enzyme (1.75 nM) was added to diluted compound followed by the addition of a mixture of template (0.36 nM), 3H-UTP (0.6 µCi, 0.29 µM), and primer-bound beads, to initiate the reaction; concentrations given are final. Reactions were allowed to proceed for 4 hours at 30° C.
IC50 values for compounds were determined using seven different [I].

Setting [3] is: HCV replicon cells, 50% reduction in FRET or luciferase activity.

T1 sequence (Q9WMX2 2420-2992): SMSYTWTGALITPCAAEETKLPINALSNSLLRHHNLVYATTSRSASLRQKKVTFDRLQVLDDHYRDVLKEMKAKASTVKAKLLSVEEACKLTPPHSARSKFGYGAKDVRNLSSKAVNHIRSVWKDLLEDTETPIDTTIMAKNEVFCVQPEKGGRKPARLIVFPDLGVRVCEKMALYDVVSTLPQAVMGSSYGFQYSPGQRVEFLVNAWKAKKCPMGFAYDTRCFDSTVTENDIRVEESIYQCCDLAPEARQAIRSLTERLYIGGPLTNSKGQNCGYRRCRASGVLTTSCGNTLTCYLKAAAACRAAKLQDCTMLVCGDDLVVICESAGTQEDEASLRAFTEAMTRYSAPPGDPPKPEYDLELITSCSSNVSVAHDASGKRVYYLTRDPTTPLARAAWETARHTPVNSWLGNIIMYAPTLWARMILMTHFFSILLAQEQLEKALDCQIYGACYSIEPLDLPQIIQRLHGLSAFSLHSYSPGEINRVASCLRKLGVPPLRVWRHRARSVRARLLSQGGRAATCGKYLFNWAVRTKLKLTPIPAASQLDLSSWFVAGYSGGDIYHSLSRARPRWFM

`CCC(CC)S(=O)(=O)NC(=O)c1ccc2c(C3CCCCC3)c3n(c2c1)CC1(C(=O)N2C4CCC2CN(C)C4)CC1c1cc(OC)ccc1-3` (stereo not shown) registered an EC50 in test [1] (Hepatitis C virus) above 0.11 µM.
Turning to `CCCS(=O)(=O)NC(=O)c1ccc2c(C3CCCCC3)c3n(c2c1)CC1(C(=O)N2C4CCC2CN(C)C4)CC1c1cc(OC)ccc1-3` (stereo not shown), the 50% effective concentration (EC50) in test [1] (Hepatitis C virus) lay within 0.001 to 0.5 µM. This compound also registered an IC50 in test [2] of 0.001 to 0.5 µM.
Regarding `CCC(C)S(=O)(=O)NC(=O)c1ccc2c(C3CCCCC3)c3n(c2c1)CC1(C(=O)N2C4CCC2CN(C)C4)CC1c1cc(OC)ccc1-3` (stereo not shown) [drawing 52], the EC50 in test [1] (setting [3]) is 0.001 to 0.5 µM. This compound yielded an IC50 in test [2] of 0.001 to 0.5 µM.
For `COc1ccc2c(c1)[C@H]1C[C@@]1(C(=O)N1C3CCC1CN(C)C3)Cn1c-2c(C2CCCCC2)c2ccc(C(=O)NS(=O)(=O)C(C)C)cc21`, in test [1] (Hepatitis C virus), the EC50 lay within 0.001 to 0.5 µM.
Compound `COc1ccc2c(c1)C1CC1(C(=O)N1C3CCC1CN(C)C3)Cn1c-2c(C2CCCCC2)c2ccc(C(=O)NS(=O)(=O)C3CCC3)cc21` (stereo not shown) [drawing 40] yielded an EC50 in test [1] (setting [3]) of 0.001 to 0.5 µM. The compound further had a 50% inhibitory concentration (IC50) in test [2] of 0.001 to 0.5 µM.
In turn, `CCN(CC)C(=O)N1CC2CCC(C1)N2C(=O)C12CC1c1cc(OC)ccc1-c1c(C3CCCCC3)c3ccc(C(=O)NS(=O)(=O)N4CCN(C)CC4)cc3n1C2` (stereo not shown) yielded a half-maximal effective concentration (EC50) in test [1] (Hepatitis C virus) of 0.001 to 0.5 µM.
`COc1ccc2c(c1)C1CC1(C(=O)N1C3CCC1CN(C)C3)Cn1c-2c(C2CCCCC2)c2ccc(C(=O)NS(=O)(=O)C(C)(C)C)cc21` (stereo not shown) came in with an EC50 in test [1] (Hepatitis C virus) of 0.001 to 0.5 µM. This compound yielded an IC50 in test [2] of 0.001 to 0.5 µM.
In test [1] (Hepatitis C virus), `CCN(CC)C(=O)N1CC2CCC(C1)N2C(=O)C12CC1c1cc(OC)ccc1-c1c(C3CCCCC3)c3ccc(C(=O)NS(=O)(=O)C4CC4)cc3n1C2` (stereo not shown) had an EC50 of 0.001 to 0.5 µM.
In turn, `CCC(C)S(=O)(=O)NC(=O)c1ccc2c(C3CCCCC3)c3n(c2c1)CC1(C(=O)N2C4CCC2CN(C)C4)CC1c1cc(OC)ccc1-3` (stereo not shown) [drawing 45] yielded a concentration for a half-maximal effect (EC50) in test [1] (Hepatitis C virus) of 0.001 to 0.5 µM. Also, the IC50 in test [2] fell in the range of 0.001 to 0.5 µM.
`COc1ccc2c(c1)C1CC1(C(=O)N1C3CCC1CN(C)C3)Cn1c-2c(C2CCCCC2)c2ccc(C(=O)NS(=O)(=O)C3CCCCC3)cc21` (stereo not shown) had a concentration for a half-maximal effect (EC50) in test [1] (Hepatitis C virus) of 0.001 to 0.5 µM.
In test [1] (Hepatitis C virus), `COc1ccc2c(c1)C1CC1(C(=O)N1C3CCC1CN(C)C3)Cn1c-2c(C2CCCCC2)c2ccc(C(=O)NS(=O)(=O)CC(C)C)cc21` (stereo not shown) returned an EC50 of 0.001 to 0.5 µM. Also, the IC50 in test [2] fell in the range of 0.001 to 0.5 µM.
For `CCCCS(=O)(=O)NC(=O)c1ccc2c(C3CCCCC3)c3n(c2c1)CC1(C(=O)N2C4CCC2CN(C)C4)CC1c1cc(OC)ccc1-3` (stereo not shown), in test [1] (Hepatitis C virus), the half-maximal effective concentration (EC50) was 0.001 to 0.5 µM.
Compound `CC(C)S(=O)(=O)NC(=O)c1ccc2c(C3CCCCC3)c3n(c2c1)CC1(C(=O)N2C4CCC2CN(C)C4)CC1c1ccccc1-3` (stereo not shown) returned a half-maximal effective concentration (EC50) in test [1] (Hepatitis C virus) of 0.001 to 0.5 µM. The compound also yielded a half-inhibitory concentration (IC50) in test [2] of 0.001 to 0.5 µM.
Turning to `CN1CC2CCC(C1)N2C(=O)C12CC1c1ccccc1-c1c(C3CCCCC3)c3ccc(C(=O)NS(=O)(=O)N(C)C)cc3n1C2` (stereo not shown), in test [1] (Hepatitis C virus), the concentration for a half-maximal effect (EC50) was 0.001 to 0.5 µM. This compound showed an IC50 in test [2] of 0.001 to 0.5 µM.
In the case of `COc1ccc2c(c1)C1CC1(C(=O)N1C3CCC1CN(C)C3)Cn1c-2c(C2CCCCC2)c2ccc(C(=O)NS(=O)(=O)CCC(F)(F)F)cc21` (stereo not shown), in test [1] (Hepatitis C virus), the EC50 is 0.001 to 0.5 µM. The same compound had an IC50 in test [2] of 0.001 to 0.5 µM.
`COc1ccc2c(c1)C1CC1(C(=O)N1C3CCC1CN(C)C3)Cn1c-2c(C2CCCCC2)c2ccc(C(=O)NS(=O)(=O)C(C)C)cc21` (stereo not shown): the EC50 in test [1] (Hepatitis C virus) was 0.001 to 0.5 µM.
Take `COc1ccc2c(c1)C1CC1(C(=O)N1C3CCC1CN(C)C3)Cn1c-2c(C2CCCCC2)c2ccc(C(=O)NS(=O)(=O)C3CCC3)cc21` (stereo not shown) [drawing 51]: the half-maximal effective concentration (EC50) in test [1] (Hepatitis C virus) is 0.001 to 0.5 µM.
In test [1] (Hepatitis C virus), `COc1ccc2c(c1)[C@@H]1C[C@]1(C(=O)N1C3CCC1CN(C)C3)Cn1c-2c(C2CCCCC2)c2ccc(C(=O)NS(=O)(=O)CC(C)C)cc21` came in with an EC50 of 0.001 to 0.5 µM. This compound also came in with an IC50 in test [2] of 0.001 to 0.5 µM.
Turning to `COc1ccc2c(c1)C1CC1(C(=O)N1C3CCC1CN(C)C3)Cn1c-2c(C2CCCCC2)c2ccc(C(=O)NS(=O)(=O)C3CCCC3)cc21` (stereo not shown), the 50% effective concentration (EC50) in test [1] (Hepatitis C virus) was 0.001 to 0.5 µM. The concentration for half-maximal inhibition (IC50) in test [2] lay in the range of 0.001 to 0.5 µM.
As to `COc1ccc2c(c1)C1CC1(C(=O)N1C3CCC1CN(C)C3)Cn1c-2c(C2CCCCC2)c2ccc(C(=O)NS(=O)(=O)C(F)(F)F)cc21` (stereo not shown), the EC50 in test [1] (Hepatitis C virus) was in the range of 0.001 to 0.5 µM.
Compound `COc1ccc2c(c1)C1CC1(C(=O)N1C3CCC1CN(C)C3)Cn1c-2c(C2CCCCC2)c2ccc(C(=O)NS(=O)(=O)CC(F)(F)F)cc21` (stereo not shown) displayed a concentration giving a half-maximal response (EC50) in test [1] (Hepatitis C virus) of 0.001 to 0.5 µM. This compound returned an IC50 in test [2] of 0.001 to 0.5 µM.
Turning to `COc1ccc2c(c1)C1CC1(C(=O)N1C3CCC1CN(C)C3)Cn1c-2c(C2CCCCC2)c2ccc(C(=O)NS(=O)(=O)CC(F)F)cc21` (stereo not shown), the concentration giving a half-maximal response (EC50) in test [1] (Hepatitis C virus) fell in the range of 0.001 to 0.5 µM.
